Tests used:
GUN1-PS = target: T1, GUN1-PS (Arabidopsis thaliana, UniProt Q9SIC9); assay: differential absorption spectrophotometry; type: binding
T1 sequence (Q9SIC9 232-918): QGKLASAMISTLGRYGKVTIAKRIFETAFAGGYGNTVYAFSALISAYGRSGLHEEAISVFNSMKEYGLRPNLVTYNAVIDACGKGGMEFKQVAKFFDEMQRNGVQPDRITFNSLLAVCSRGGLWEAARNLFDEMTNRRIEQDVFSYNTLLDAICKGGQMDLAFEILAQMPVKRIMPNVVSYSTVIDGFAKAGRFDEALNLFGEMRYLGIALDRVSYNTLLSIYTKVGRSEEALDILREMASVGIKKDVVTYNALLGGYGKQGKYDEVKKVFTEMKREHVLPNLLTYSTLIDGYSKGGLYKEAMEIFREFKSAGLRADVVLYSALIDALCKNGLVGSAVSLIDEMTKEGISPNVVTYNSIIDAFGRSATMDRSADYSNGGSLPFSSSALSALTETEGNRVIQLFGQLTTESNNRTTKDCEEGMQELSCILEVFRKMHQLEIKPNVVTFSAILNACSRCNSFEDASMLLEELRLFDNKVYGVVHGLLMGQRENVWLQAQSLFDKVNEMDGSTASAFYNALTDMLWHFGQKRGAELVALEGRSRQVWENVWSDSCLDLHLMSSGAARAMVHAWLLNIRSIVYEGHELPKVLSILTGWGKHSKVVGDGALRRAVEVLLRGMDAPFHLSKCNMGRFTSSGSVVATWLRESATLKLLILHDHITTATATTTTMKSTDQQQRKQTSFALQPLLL

purified protein = substrate: C=CC1=C(C)c2cc3[nH]c(cc4nc(cc5[nH]c(cc1n2)c(C)c5CCC(=O)O)C(CCC(=O)O)=C4C)c(C)c3C=C; assay: purified protein; conditions: Zn chelation; without GUN1-PS

## C=CC1=C(C)c2cc3[nH]c(cc4nc(cc5[nH]c(cc1n2)c(C)c5CCC(=O)O)C(CCC(=O)O)=C4C)c(C)c3C=C [Proto IX]
GUN1-PS
  Kd: 4.42 ± 0.56 µM

## C=CC1=C(C)C2=Cc3c(C=C)c(C)c4[n]3[Fe]([Cl])[n]3c(c(C)c(CCC(=O)O)c3=CC3=NC(=C4)C(C)=C3CCC(=O)O)=CC1=N2 [hemin]
GUN1-PS
  Kd: 6.08 ± 1.11 µM

B1: FC1 (Arabidopsis thaliana) (protein)
chain: CDIKERSFGESMTITNRGLSFKTNVFEQARSVTGDCSYDETSAKARSHVVAEDKIGVLLLNLGGPETLNDVQPFLYNLFADPDIIRLPRPFQFLQGTIAKFISVVRAPKSKEGYAAIGGGSPLRKITDEQADAIKMSLQAKNIAANVYVGMRYWYPFTEEAVQQIKKDKITRLVVLPLYPQYSISTTGSSIRVLQDLFRKDPYLAGVPVAIIKSWYQRRGYVNSMADLIEKELQTFSDPKEVMIFFSAHGVPVSYVENAGDPYQKQMEECIDLIMEELKARGVLNDHKLAYQSRVGPVQWLKPYTDEVLVDLGKSGVKSLLAVPVSFVSEHIETLEEIDMEYRELALESGVENWGRVPALGLTPSFITDLADAVIESLPSAEAMSNPNAVVDSEDSESSDAFSYIVKMFFGSILAFVLLLSPKMFHAFRNL
Purified protein
  Km: 26.5 µM

— article PMC6900522 (Proceedings of the National Academy of Sciences of the …, 2019)
